# Marks after values point to notes of the source that are not given here.
# Legend:
# Assay in all cases: imazapyr whole plant greenhouse test (Example 2)
# Assay type in all cases: in vivo
# [1] = tested on: sunflower hybrid H3 (L3 × L2), A205V + A122T
# Method: (§1) Seeds were sown in Petri dishes and, after germination, plantlets were transplanted to pots of 10 cm of diameter in a potting media consisting of equal parts of vermiculite, soil and sand. Plants were grown in a greenhouse under natural light conditions supplemented with 400 W sodium halide lamps to provide a 16 hr daylength. Day/night temperatures were 25 and 20 ° C., respectively. At the V2-V4 stage (Schneiter & Miller (1981) Crop Sci. 21:901-903) 10 plants of each genotype were randomly assigned to each treatment consisting of eight imazapyr doses (0, 40, 80, 160, 240, 320, 400 and 480 g ai/ha, corresponding to untreated, 0.5×, 1×, 2×, 3×, 4×, 5× and 6×, respectively), and a zero-time biomass determination. Experiment was arranged as a randomized block design with a full factorial (sunflower line×treatment) arrangement of treatments and 10 replications.
# (§2) On the day of herbicide application ten plants of each genotype were cut at the cotyledonal node and dried at 60° C. for 48 hrs for zero-time dried weight determination.
# (§3) The remaining plants were maintained for 14 days after imazapyr treatment (DAT) and their height, Phytotoxicity Index (PI) and above ground dry biomass were determined Height was determined as the distance between the cotyledonal node and the apex of each plant. Above ground biomass data from each line were converted to biomass accumulation after application by subtracting the appropriate average zero- time biomass from each sample. Dry biomass data were converted to percentages of the untreated control plants within each line to allow direct comparisons between groups.
# [2] = tested on: sunflower genotypes A122T/A205V (mean of H3, H4); settings: for Phytotoxicity Index (0-9) 14 days after treatment / biomass accumulation 14 days after treatment, % of untreated / plant height 14 days after treatment, % of untreated: A122T/A205V Mean; for height reduction: heterozygotes A122T/A205V, of the untreated controls; for reduction in biomass weight: heterozygous A122T/A205V
# Method: as §1, §2, §3
# [3] = tested on: sunflower hybrid H2 (L3 × L4), A122T
# Method: as §1, §2, §3
compound,measurement,setting,value
CC(C)C1(C)N=C(c2ncccc2C(=O)O)NC1=O (centres unmarked) [imazapyr],"plant height 14 days after treatment, % of untreated","[1]; dose 3 (3x, 240 g ai/ha)",93.8%
same,Phytotoxicity Index (0-9) 14 days after treatment,"[1]; dose 4 (4x, 320 g ai/ha)",0.5
same,"biomass accumulation 14 days after treatment, % of untreated","[1]; dose 4 (4x, 320 g ai/ha)",87.8%
same,"plant height 14 days after treatment, % of untreated","[1]; dose 4 (4x, 320 g ai/ha)",92.0%
same,Phytotoxicity Index (0-9) 14 days after treatment,"[1]; dose 5 (5x, 400 g ai/ha)",0.6
same,"biomass accumulation 14 days after treatment, % of untreated","[1]; dose 5 (5x, 400 g ai/ha)",72.1%
same,"plant height 14 days after treatment, % of untreated","[1]; dose 5 (5x, 400 g ai/ha)",65.4%
same,Phytotoxicity Index (0-9) 14 days after treatment,"[1]; dose 6 (6x, 480 g ai/ha)",1.0
same,"biomass accumulation 14 days after treatment, % of untreated","[1]; dose 6 (6x, 480 g ai/ha)",63.2%
same,"plant height 14 days after treatment, % of untreated","[1]; dose 6 (6x, 480 g ai/ha)",58.0%
same,Phytotoxicity Index (0-9) 14 days after treatment,"[2]; dose 0.5 (0.5x, 40 g ai/ha)",0.5
same,"biomass accumulation 14 days after treatment, % of untreated","[2]; dose 0.5 (0.5x, 40 g ai/ha)",99.6%
same,"plant height 14 days after treatment, % of untreated","[2]; dose 0.5 (0.5x, 40 g ai/ha)",99.4%
same,Phytotoxicity Index (0-9) 14 days after treatment,"[2]; dose 1 (1x, 80 g ai/ha)",0.5
same,"biomass accumulation 14 days after treatment, % of untreated","[2]; dose 1 (1x, 80 g ai/ha)",98.9%
same,"plant height 14 days after treatment, % of untreated","[2]; dose 1 (1x, 80 g ai/ha)",98.3%
same,Phytotoxicity Index (0-9) 14 days after treatment,"[2]; dose 2 (2x, 160 g ai/ha)",0.5
same,"biomass accumulation 14 days after treatment, % of untreated","[2]; dose 2 (2x, 160 g ai/ha)",93.2** %
same,"plant height 14 days after treatment, % of untreated","[2]; dose 2 (2x, 160 g ai/ha)",98.3%
same,Phytotoxicity Index (0-9) 14 days after treatment,"[2]; dose 3 (3x, 240 g ai/ha)",0.5
same,"biomass accumulation 14 days after treatment, % of untreated","[2]; dose 3 (3x, 240 g ai/ha)",89.5** %
same,"plant height 14 days after treatment, % of untreated","[2]; dose 3 (3x, 240 g ai/ha)",96.9%
same,Phytotoxicity Index (0-9) 14 days after treatment,"[2]; dose 4 (4x, 320 g ai/ha)",0.5
same,"biomass accumulation 14 days after treatment, % of untreated","[2]; dose 4 (4x, 320 g ai/ha)",86.4** %
same,"plant height 14 days after treatment, % of untreated","[2]; dose 4 (4x, 320 g ai/ha)",93.5** %
same,Phytotoxicity Index (0-9) 14 days after treatment,"[2]; dose 5 (5x, 400 g ai/ha)",0.6
same,"biomass accumulation 14 days after treatment, % of untreated","[2]; dose 5 (5x, 400 g ai/ha)",75.4** %
same,"plant height 14 days after treatment, % of untreated","[2]; dose 5 (5x, 400 g ai/ha)",76.3** %
same,Phytotoxicity Index (0-9) 14 days after treatment,"[2]; dose 6 (6x, 480 g ai/ha)",1
same,"biomass accumulation 14 days after treatment, % of untreated","[2]; dose 6 (6x, 480 g ai/ha)",67.5** %
same,"plant height 14 days after treatment, % of untreated","[2]; dose 6 (6x, 480 g ai/ha)",61.8** %
same,height reduction,[2]; 0.5x,0.6%
same,height reduction,[2]; 6x,38.2%
same,reduction in biomass weight,[2]; 0.5x,0.3%
same,reduction in biomass weight,[2]; 6x,33%
same,Phytotoxicity Index (0-9) 14 days after treatment,"[3]; dose 0.5 (0.5x, 40 g ai/ha)",0.5
same,"biomass accumulation 14 days after treatment, % of untreated","[3]; dose 0.5 (0.5x, 40 g ai/ha)",100%
same,"plant height 14 days after treatment, % of untreated","[3]; dose 0.5 (0.5x, 40 g ai/ha)",99.2%
same,Phytotoxicity Index (0-9) 14 days after treatment,"[3]; dose 1 (1x, 80 g ai/ha)",0.5
same,"biomass accumulation 14 days after treatment, % of untreated","[3]; dose 1 (1x, 80 g ai/ha)",97.2%
same,"plant height 14 days after treatment, % of untreated","[3]; dose 1 (1x, 80 g ai/ha)",98.6%
same,Phytotoxicity Index (0-9) 14 days after treatment,"[3]; dose 2 (2x, 160 g ai/ha)",0.5
same,"biomass accumulation 14 days after treatment, % of untreated","[3]; dose 2 (2x, 160 g ai/ha)",97.9%
same,"plant height 14 days after treatment, % of untreated","[3]; dose 2 (2x, 160 g ai/ha)",100.3%
same,Phytotoxicity Index (0-9) 14 days after treatment,"[3]; dose 3 (3x, 240 g ai/ha)",0.5
same,"biomass accumulation 14 days after treatment, % of untreated","[3]; dose 3 (3x, 240 g ai/ha)",98.2%
same,"plant height 14 days after treatment, % of untreated","[3]; dose 3 (3x, 240 g ai/ha)",99.6%
same,Phytotoxicity Index (0-9) 14 days after treatment,"[3]; dose 4 (4x, 320 g ai/ha)",0.5
same,"biomass accumulation 14 days after treatment, % of untreated","[3]; dose 4 (4x, 320 g ai/ha)",97.8%
same,"plant height 14 days after treatment, % of untreated","[3]; dose 4 (4x, 320 g ai/ha)",101.0%
same,Phytotoxicity Index (0-9) 14 days after treatment,"[3]; dose 5 (5x, 400 g ai/ha)",0.5
same,"biomass accumulation 14 days after treatment, % of untreated","[3]; dose 5 (5x, 400 g ai/ha)",85.1%
same,"plant height 14 days after treatment, % of untreated","[3]; dose 5 (5x, 400 g ai/ha)",87.0%
same,Phytotoxicity Index (0-9) 14 days after treatment,"[3]; dose 6 (6x, 480 g ai/ha)",0.5
same,"biomass accumulation 14 days after treatment, % of untreated","[3]; dose 6 (6x, 480 g ai/ha)",79.5%
same,"plant height 14 days after treatment, % of untreated","[3]; dose 6 (6x, 480 g ai/ha)",79.6%
